# Laboratory results as given in patent US20190022225A1, “PROTOCOL FOR INCREASING LIFE EXPECTANCY IN A TEST SUBJECT” (Mayo Foundation for Medical Education and Research, priority 2015, published 2019).
# “Also recorded” adds a separate entry of the source.
# Columns and labels:
# Assay type in all cases: in vivo, mouse
# aging mice = test: Late life muscle strength and condition (grip strength, treadmill, muscle weight, fiber area)
# Experimental: Grip strength was measured in untreated 12 month old mice, and in mice treated with either vehicle or AP20187 at 18 and 28 months of age.
# Muscle strength was also assessed by determining exercise duration and distance on a treadmill.
# As an additional measure of muscle condition gastrocnemius and tibialis anterior muscles, shown in FIG. 99, where dissected from senolysis treated and untreated 28 month old mice and weighed. As shown in FIGS. 100 and 101 the gastrocnemius and tibialis anterior muscles are heavier in treated mice than in untreated mice, muscle weights from untreated 18 month old mice are included to show the age related decline. Muscle fiber area of the gastrocnemius and tibialis anterior muscles was also used to assess muscle condition.
# INKattac mice [1] = test: Micro CT estimate of intervertebral disc space (IVS) in aged mice
# Experimental: (§1) This example describes a method for assessing the effect of senotlytic agents or killing of senescent cells on bone structure. Two groups of INKattac mice are used for this method: mice treated from 12-28 months of age with vehicle (“old” controls) and mice treated from 12-28 months of age with AP20187. All mice used in this example were male. After sacrifice the cadavers were fixed in 10% neutral buffered formalin, and stored at 4° C.
# Intervertebral discs are type of cartilage filling the space between vertebras of the spine. They are known to decrease in function and volume with age. We estimated the intervertebral volumes between specific vertebra in spines of aged mice, with and without senolytic treatment, to determine if intervertebral disc space was maintained in aged animals through senolysis.
# While IVDs cannot be directly visualized with the micro-CT method of example 43, an image segmentation protocol was developed to infer disc volume by determining the volume between lumbar vertebra L6 and L5, L5 and L4, and L4 and L3 to estimate the intervertebral disc space (IVS) (FIG. 94).
# [2] = test system: 3MR or INK-ATTAC mice exposed to cigarette smoke; test: Cigarette smoke exposure model (COPD), oxygen saturation; conditions: after 2 months of cigarette smoke exposure
# Experimental: Six week-old 3MR (n=35) or INK-ATTAC (n=35) mice were chronically exposed to cigarette smoke generated from a Teague TE-10 system, an automatically-controlled cigarette smoking machine that produces a combination of side-stream and mainstream cigarette smoke in a chamber, which is transported to a collecting and mixing chamber where varying amounts of air is mixed with the smoke mixture. […] Mice received a total of 6 hours of cigarette smoke exposure per day, 5 days a week for 6 months. Each lighted cigarette (3R4F research cigarettes containing 10.9 mg of total particulate matter (TPM), 9.4 mg of tar, and 0.726 mg of nicotine, and 11.9 mg carbon monoxide per cigarette [University of Kentucky, Lexington, Ky.]) was puffed for 2 seconds and once every minute for a total of 8 puffs, with the flow rate of 1.05 L/min, to provide a standard puff of 35 cm^3. The smoke machine was adjusted to produce a mixture of side stream smoke (89%) and mainstream smoke (11%) by smoldering 2 cigarettes at one time. The smoke chamber atmosphere was monitored for total suspended particulates (80-120 mg/m^3) and carbon monoxide (350 ppm). Beginning at day 7, (10) INK-ATTAC and (10) 3MR mice were treated with AP20187 (3×per week) or gancyclovir (5 consecutive days of treatment followed by 16 days off drug, repeated until the end of the experiment), respectively. An equal number of mice received the corresponding vehicle. The remaining 30 mice (15 INK-ATTAC and 15 3MR) were evenly split with 5 of each genetically modified strain placed into three different treatment groups. One group (n=10) received Nutlin-3A (25 mg/kg dissolved in 10% DMSO/3% Tween-20 in PBS, treated 14 days consecutively followed by 14 days off drug, repeated until the end of the experiment). One group (n=10) received ABT-263 (Navitoclax) (100 mg/kg dissolved in 15% DMSO/5% Tween-20, treated 7 days consecutively followed by 14 days off drug, repeated until the end of the experiment), and the last group (n=10) received only the vehicle used for ABT-263 (15% DMSO/5% Tween-20), following the same treatment regimen as ABT-263.
# After two months of cigarette smoke exposure, lung function was assessed by monitoring oxygen saturation using the MouseSTAT PhysioSuite pulse oximeter (Kent Scientific). Animals were anesthetized with isoflurane (1.5%) and the toe clip was applied. Mice were monitored for 30 seconds and the average peripheral capillary oxygen saturation (SpO2) measurement over this duration was calculated.
# INKattac mice [3] = test: Micro CT of femoral cortical bone in INKattac mice treated from 12-28 months
# Experimental: as §1
# Mice were cleaned of excess tissue, and placed in a Bruker 1176 “Skyscanner” for micro computerized tomographic (mCT) scanning. A variety of settings were explored to visualize whole skeletons, the following settings were used in this example: 65 Kv, 385 μA, 17.58 μm, 0.5 mm Al filter, rotation step 0.5, frame averaging 6, smoothing 2, smoothing kernel 2, ring artifact correction 4, and beam hardening correction 30%. Typical acquisition consisted of a whole body scan, followed by additional scans if necessary for further data exploration.
# Reconstruction of the raw data was carried out. Subvoluming of anatomical features of interest was then further performed on the whole skeleton, using DataViewer, or CtAn software (Bruker). […]
# The average thickness of each 2 mm subvolume was measured in treated versus non-treated animals. […]
# [4] = test system: INK-ATTAC transgenic mice; test: Cardiac stress test (lethal isoproterenol) in INK-ATTAC mice treated with AP20187
# Experimental: To study the impact of senescent cell clearance on health and lifespan, cohorts of INK-ATTAC transgenic mice on FVB×129Sv/E×C57BL/6 mixed or C57BL/6 pure genetic backgrounds were established. At 12 months age, one half of each cohort was injected three times/week with AP20187 to induce apoptosis of p16-positive senescent cells (0.2 mg/kg and 2 mg/kg AP20187 for the mixed and the pure C57BL/6 cohorts, respectively), while the other half of each cohort received vehicle. At 18 months, subsets of male and female mice from each cohort were subjected to a cardiac stress test, in which mice were injected with a lethal dose of isoproterenol (680 mg/kg) and the time to cardiac arrest was recorded.
# Cardio-protective signaling pathways are known to provide tolerance to metabolic stresses such as ischemia and hypoxia decline (Granfeldt et al., 2009, Cardiovasc. Res. 83:234-246). […] ATP-dependent K channels (KATP) play a central role in cardio-protective signaling (Gross and Auchampach, 1992, Cardiovasc. Res. 26:1011-1016).). These KATP channels are composed of the pore-forming subunit Kir6.2/Kir6.1, the regulatory subunit Sur2a, and additional accessory proteins. […]
compound,measurement,setting,value
CC[C@H](C(=O)N1CCCC[C@H]1C(=O)O[C@H](CCc1ccc(OC)c(OC)c1)c1cccc(OCC(=O)NCC(CNC(=O)COc2cccc([C@@H](CCc3ccc(OC)c(OC)c3)OC(=O)[C@@H]3CCCCN3C(=O)[C@@H](CC)c3cc(OC)c(OC)c(OC)c3)c2)CN(C)C)c1)c1cc(OC)c(OC)c(OC)c1 [AP20187],gastrocnemius and tibialis anterior muscle weight,aging mice; 28 month old mice,decreased muscle loss with age
same,exercise distance on treadmill,"aging mice; 28 months, versus vehicle",increased exercise distance; also recorded: greater distances
same,exercise duration on treadmill,"aging mice; 28 months, versus vehicle",increased duration of exercise; also recorded: exercised for longer
same,grip strength,"aging mice; 28 months, versus vehicle",increased grip strength; also recorded: decreased loss of muscle strength
same,improvement of intervertebral disc space (IVS),"INKattac mice [1]; L6-L5, L5-L4, L4-L3, versus vehicle",25-33%
same,"IVS versus vehicle treated controls, significance",INKattac mice [1]; three sites in the spine,statistically significantly greater
same,SpO2 levels versus untreated controls,[2],statistically significant increases
same,cortical thickness of femoral bone,"INKattac mice [3]; aged mice, versus controls",increased
same,retention of cortical bone volume (BV/TV) with age,"INKattac mice [3]; male mice treated from 12-28 months, 2 mm subvolume of femur mid-diaphysis",6.1%
same,time to cardiac arrest after lethal isoproterenol (cardio-protection),[4]; 0.2 or 2 mg/kg three times/week from 12 to 18 months,sustained youthful cardio-protection against isoproterenol
same,Sur2a expression in heart,[4]; 18-month-old female mice,sustained Sur2a expression
